# Assay results from ChEMBL document CHEMBL1150469, “The conserved acid binding domain model of inhibitors of protein phosphatases 1 and 2A: Molecular modelling aspects” (Bioorg Med Chem Lett, 1993).
# What was measured:
# Mus musculus [1] = species: Mus musculus; assay: Tested for inhibition of specific [3H]- okadaic acid binding to the cytosolic fraction of mouse skin; assay type: functional
# Mus musculus [2] = species: Mus musculus; assay: Tested for intra peritoneal dose at which compound dose not show toxicity in mouse; assay type: functional, organism-based
# Mus musculus [3] = species: Mus musculus; assay: Tested for inhibition of specific [3H]- okadaic acid binding to the cytosolic fraction of mouse liver.; assay type: functional
# Mus musculus [4] = species: Mus musculus; assay: Tested for inhibition of specific [3H]- okadaic acid binding to the cytosolic fraction of mouse skin.; assay type: functional
SMILES,ED50 (Mus musculus [1]) [nM],DOSE (Mus musculus [2]) [mg/kg],ED50 (Mus musculus [3]) [nM],ED50 (Mus musculus [4]) [nM]
C=C1C(=O)N[C@H](C)C(=O)N[C@@H](CC(C)C)C(=O)N[C@@H](C(=O)O)[C@H](C)C(=O)N[C@@H](CCCNC(=N)N)C(=O)N[C@@H](/C=C/C(C)=C/[C@H](C)[C@H](Cc2ccccc2)OC)[C@H](C)C(=O)N[C@@H](C(=O)O)CCC(=O)N1C (stereo in doubt; form 1),68,–,–,–
C=C1C(=O)N[C@H](C)C(=O)N[C@@H](CC(C)C)C(=O)N[C@@H](C(=O)O)[C@H](C)C(=O)N[C@@H](CCCNC(=N)N)C(=O)N[C@@H](/C=C/C(C)=C/[C@H](C)[C@H](Cc2ccccc2)OC)[C@H](C)C(=O)N[C@@H](C(=O)O)CCC(=O)N1C (stereo in doubt; form 2),8,1,1.3,–
COC[C@@H]([C@H](O)[C@H](O)C(=O)NCC[C@H](C)c1nc(/C=C/C[C@@H]2O[C@]3(C[C@@H](O)[C@@H]2C)O[C@H]([C@H](C[C@H](O)[C@H](C)[C@H](O)[C@H](C)/C=C(C)/C(C)=C/C=C/C(C)=C\C#N)OC)[C@H](OP(=O)(O)O)C3(C)C)co1)N(C)C [CALYCULIN A],2.8,–,–,–
C=C1[C@@H](O)[C@@H]2O[C@]3(CC[C@H](/C=C/[C@@H](C)[C@@H]4CC(C)=C[C@@]5(O[C@H](C[C@@](C)(O)C(=O)O)CC[C@H]5O)O4)O3)CC[C@H]2O[C@@H]1[C@@H](O)C[C@H](C)[C@H]1O[C@@]2(CCCCO2)CC[C@H]1C [OKADAIC ACID],–,–,3.2,2.8
